Measured values reported in US20240067672A1, “FLAVONE DERIVATIVE FOR TREATING TUMORS AND USE THEREOF” (SICHUAN FUSHENGYUAN TECHNOLOGY CO., LTD, priority 2019, published 2024).
In brackets after ≈: the same amount, converted by molar mass. Where two headings read alike, the source gives them in different places.

Tests used:
[1] = system: HepG2 hepatoma cells; assay: Anti-tumor activity in vitro, MTT method, HepG2; type: cell-based, human; conditions: for IC50 compared with Icaritin, HepG2 72 h: HepG2, 72 h after administration; for IC50 compared with Icaritin, 48 and 72 h: HepG2 and SMMC7721, 48 and 72 h; for IC50: MTT
Protocol: (§1) The effects of Icaritin and its derivatives on the activities of HepG2 and SMMC7721 hepatoma cells were investigated by a MTT method. […] After reaction for 48, 7 2 h, each well was added with 20 μL 5 mg/mL, of MTT solution, and incubated in a cell incubator for 3-4 h. Then the liquid in the well plates was sucked to discard. Each well was added with 150 μL of dimethyl sulfoxide (DMSO), and shaken on an enzyme-labeled instrument for 30 s at ambient temperature so that the Formazan crystals were dissolved sufficiently. The absorbance value A of each well at 570 nm was detected by the enzyme-labeled instrument, and the experiment was repeated for 3 times.

[2] = system: HepG2 subcutaneous tumor; assay: Anti-tumor activity in vivo, HepG2 nude mouse model; parameters: species or system Balb/c nude mice; conditions: HepG2 nude mice, intraperitoneally every day for 21 days; for anti-tumor activity in vivo (tumor volume, FIG. 1): high and low dose; for tumor inhibition rate: equal mole of Icaritin (Icaritin 10 mg/kg)
Excerpt: According to the investigation results of solubility and cell activity, compounds 51 and 57 with high solubility and strong cell activity were selected to evaluate the anti-hepatoma activity in vivo on HepG2 nude mouse models.
Human hepatoma cells HepG2 were cultivated to logarithmic growth phase in DMEM culture medium containing 10% fetal calf serum and 1% antibiotics (penicillin and streptomycin), and digested by adding 0.25% pancreatin. After the resulting cells were cultivated in DMEM and the pancreatin was removed, they were centrifuged at 1000 rpm for 3 min. Then the cells were collected and washed with free medium until no bubbles produced as observed by naked eyes, and then ° entrifuged. After discarding the supernatant, the cells were resuspended with free medium adjust the cell density to 1×10^6/100 μL.
70 Balb/c nude mice raised in an SPF-grade animal house were taken. 100 μL, HepG2 cells were inoculated subcutaneously at the right lateral rib of each nude mouse. The growing status of nude mice was observed and the subcutaneous tumor volume was measured every day. One week after inoculation, obvious nodules were formed subcutaneously in nude mice. Administration was initiated when the tumor grew to 100 mm^3.
Tumor volume increased to 80-120 mm^3 at two weeks after inoculation, marked as Day 0. The nude mice were randomly divided into 6 groups with 6 mice in each group: a normal saline group (control), an Icaritin group (Icarian), a yyhs-i-b high dose group, a yyhs-1-b low dose group, a yyhs-2-a high dose group, and a yyhs-2-a low dose group. Administration was performed intraperitoneally every day for 21 days totally.
The administration doses were: Icarian at 10 mg/kg, compound 51 high dose at 25.30 mg/kg, low dose at 12.65 mg/kg, compound 57 high dose at 22.91 mg/kg, and low dose at 11.45 mg/kg.
From day 0, the body weights and tumor volumes of nude mice were measured once every three days, in which the maximum diameter (a) of tumor was measured first, and then the longest radial line length (b) perpendicular to the maximum diameter line was measured, in mm, thereby calculating the tumor volume according to the following formula: […]
At the end of the treatment cycle, blood was taken from orbital vein of the nude mice for later blood routine test. Then the nude mice were sacrificed using cervical vertebra dislocation. After taking photos, the tumors were stripped immediately and photographed for record. From day 0, the body weights of each group of nude mice were weighed and recorded every 3 days, and at the same time, the tumor volumes of these nude mice were recorded. The average body weight and tumor volume were calculated for each group, and the curve of body weight versus tumor volume of the nude mice was plotted according to the statistical data.
The hearts, livers, spleens, lungs, and kidneys were subsequently picked from the nude mice, soaked with 4% paraformaldehyde and then preserved at a low temperature of 4° C. for later investigation of the mechanism of the anti-tumor in vivo. The tumor volume growth curve was plotted with the time as the horizontal coordinate, and with the tumor volume as the vertical coordinate. The tumor volume growth curves and the appearance of tumors are seen in FIG. 1. The body weight changing curves of mice are plotted in FIG. 2, with the time as the horizontal coordinate, and the body weight of mice as the vertical coordinate.

[3] = system: SMMC7721 hepatoma cells; assay: Anti-tumor activity in vitro, MTT method, SMMC7721; type: cell-based, human; conditions: for IC50: MTT; for IC50 compared with Icaritin, SMMC7721 72 h: SMMC7721, 72 h after administration
Protocol: as §1

[4] = Determination of solubility (HPLC); type: physicochemical; conditions: for solubility: thermodynamic from solid
Protocol: About 1.325 mg of Icaritin and the synthesized derivative were weighed and dissolved in 1.5 mL methanol respectively, then diluted with methanol into solutions of 10, 20, 50, 100, 150, 200, 500 μg/mL, and filtered over an organic-system filter head of 0.45 μm into sample bottles, obtaining the samples for test. Four parts of Icaritin and the synthesized derivative were weighed respectively, 1.00 mg for each part, and placed into 1.5 mL EP tubes, and 1 mL of water, normal saline, PBS, and 0.1% Tween 80 were respectively added thereto. The obtained solutions were ultrasonicated for 1 h, placed in a water bath at 37° C. overnight, and centrifuged at 10000 r/min for 3 min to collect supernatants. The supernatants were taken into sample bottles and detected by HPLC. The experiments were conducted in parallel for three times. The detection of HPLC is conducted under conditions of a chromatographic column of waters Symmetry C18, a mobile phase of a solution of methanol and water with a ratio of 80:20, a flow rate of 1.0 mL/min, a column temperature of 30° C., a detection wavelength of 210 nm, a run time of 30 min, and a sample load of 20 μL.

[5] = Homo sapiens, HepG2, 48 h, read-out: IC50 HepG2 48 h
[6] = Homo sapiens, HepG2, 72 h, read-out: IC50 HepG2 72 h
[7] = Homo sapiens, SMMC-7721, SMMC7721, 48 h, read-out: IC50 SMMC7721 48 h
[8] = Homo sapiens, SMMC-7721, SMMC7721, 72 h, read-out: IC50 SMMC7721 72 h
[9] = 37 °C, aqueous with cosolvent or surfactant or cyclodextrin
[10] = HepG2, 48 h, read-out: IC50 HepG2 48 h
[11] = HepG2, 72 h, read-out: IC50 HepG2 72 h
[12] = SMMC7721, 48 h, read-out: IC50 SMMC7721 48 h
[13] = SMMC7721, 72 h, read-out: IC50 SMMC7721 72 h

In the case of `COc1ccc(-c2oc3c(CC=C(C)C)c(O)cc(O)c3c(=O)c2OC(=O)CCC(=O)OCCOCCOCCOCCOCc2cn(CCO[C@H]3O[C@@H](CO)[C@H](O)[C@@H](O)[C@@H]3O)nn2)cc1` [Compound 51], the “IC50 compared with Icaritin, HepG2 72 h” value [1] is reported as “less than that of Icaritin”, the “IC50 compared with Icaritin, 48 and 72 h” value [1] is reported as “less than those of Icaritin” and the IC50 [1, 5] is reported as 14.9 ± 0.22 µM. For the same compound, the IC50 [1, 6] was 7.09 ± 0.38 µM, the “anti-tumor activity in vivo (tumor volume, FIG. 1)” value [2] was “excellent anti-tumor activities in vivo and are dose-dependent” and the tumor inhibition rate [2] was 95%. For the same compound, the IC50 [3, 7] was 9.3 ± 0.35 µM, the IC50 [3, 8] was 5.99 ± 0.49 µM and the “IC50 compared with Icaritin, SMMC7721 72 h” value [3] was “less than that of Icaritin”. The “solubility compared with that of the bulk drug (Icaritin)” value (“solubility compared with that” below) [4] was “improved effectively”, the solubility ([4]; 37 °C, aqueous buffer) was 48.5 ± 0.948 µg/mL (≈ 52 µM) and the solubility [4, 9] was 51.5 ± 1.23 µg/mL (≈ 55.3 µM). The solubility ([4]; 37 °C, saline or isotonic) was 47.9 ± 0.993 µg/mL (≈ 51.4 µM) and the solubility ([4]; 37 °C, water) was 50.3 ± 1.31 µg/mL (≈ 54 µM).

In the case of `COc1ccc(-c2oc3c(CC=C(C)C)c(O)cc(O)c3c(=O)c2OC(=O)CCC(=O)OCCOCCOCCOCc2cn(C3OC(CO)C(O)C(O)C3O)nn2)cc1` (centres unmarked) [Compound 57], the IC50 [1, 10] is reported as 10.3 ± 1.19 µM, the IC50 [1, 11] is reported as 7.91 ± 0.98 µM and the “IC50 compared with Icaritin, HepG2 72 h” value [1] is reported as “less than that of Icaritin”. For the same compound, the “IC50 compared with Icaritin, 48 and 72 h” value [1] was “less than those of Icaritin”, the “anti-tumor activity in vivo (tumor volume, FIG. 1)” value [2] was “excellent anti-tumor activities in vivo and are dose-dependent” and the tumor inhibition rate [2] was 90%. The IC50 [3, 12] was 10.3 ± 1.19 µM, the IC50 [3, 13] was 5.82 ± 1.04 µM and the “IC50 compared with Icaritin, SMMC7721 72 h” value [3] was “less than that of Icaritin”. For the same compound, the “Solubility, 0.1% Tween 80” value [4] was 6.508 ± 0.742 µg/mL (≈ 7.71 µM), the “Solubility, Normal Saline” value [4] was 16.383 ± 0.941 µg/mL (≈ 19.4 µM) and the “Solubility, PBS” value [4] was 16.391 ± 1.029 µg/mL (≈ 19.4 µM). For the same compound, the “Solubility, Water” value [4] was 17.710 ± 1.012 µg/mL (≈ 21 µM) and the “solubility compared with that” value [4] was “improved effectively”.

In the case of `COc1ccc(-c2oc3c(CC=C(C)C)c(O)cc(O)c3c(=O)c2OC(=O)CCC(=O)OCCCOCc2cn(CCOCCOC3OC(CO)C(O)C(O)C3O)nn2)cc1` (centres unmarked) [Compound 97], the IC50 [1, 10] is reported as greater than 100 µM, the IC50 [1, 11] is reported as greater than 100 µM and the IC50 [3, 12] is reported as greater than 100 µM. For the same compound, the IC50 [3, 13] was 8.68 ± 0.52 µM, the “IC50 compared with Icaritin, SMMC7721 72 h” value [3] was “less than that of Icaritin” and the “Solubility, 0.1% Tween 80” value [4] was 6.123 ± 0.931 µg/mL (≈ 7.14 µM). For the same compound, the “Solubility, Normal Saline” value [4] was 5.036 ± 1.031 µg/mL (≈ 5.87 µM), the “Solubility, PBS” value [4] was 5.031 ± 0.901 µg/mL (≈ 5.86 µM) and the “Solubility, Water” value [4] was 5.474 ± 0.394 µg/mL (≈ 6.38 µM).

In the case of `COc1ccc(-c2oc3c(CC=C(C)C)c(O)cc(O)c3c(=O)c2OC(=O)CCC(=O)OCCN(CCOCc2cn(CCO[C@@H]3O[C@H](CO)[C@@H](O)[C@H](O)[C@H]3O)nn2)c2ccccc2)cc1` [Compound 104], the “IC50 compared with Icaritin, HepG2 72 h” value [1] is reported as “less than that of Icaritin”, the IC50 [1, 5] is reported as greater than 100 µM and the IC50 [1, 6] is reported as 9.02 ± 0.27 µM. For the same compound, the IC50 [3, 7] was greater than 100 µM, the IC50 [3, 8] was 12.9 ± 1.03 µM and the “IC50 compared with Icaritin, SMMC7721 72 h” value [3] was “less than that of Icaritin”. For the same compound, the “Solubility, 0.1% Tween 80” value [4] was “Insoluble”, the “Solubility, Normal Saline” value [4] was “Insoluble” and the “Solubility, PBS” value [4] was “Insoluble”. The “Solubility, Water” value [4] was “Insoluble”.

In the case of `COc1ccc(-c2oc3c(CC=C(C)C)c(O)cc(O)c3c(=O)c2OC(=O)CCC(=O)OCCN(CCOCc2cn(CCOCCO[C@H]3O[C@@H](CO)[C@H](O)[C@@H](O)[C@@H]3O)nn2)c2ccccc2)cc1` [Compound 105], the “IC50 compared with Icaritin, HepG2 72 h” value [1] is reported as “less than that of Icaritin”, the “IC50 compared with Icaritin, 48 and 72 h” value [1] is reported as “less than those of Icaritin” and the IC50 [1, 5] is reported as 15.1 ± 1.32 µM. It also gave an IC50 [1, 6] of 7.69 ± 0.04 µM, an IC50 [3, 7] greater than 100 µM and an IC50 [3, 8] of 9.57 ± 1.2 µM. For the same compound, the “IC50 compared with Icaritin, SMMC7721 72 h” value [3] was “less than that of Icaritin”, the “Solubility, PBS” value [4] was “Insoluble” and the “solubility compared with that” value [4] was “improved effectively”. For the same compound, the solubility [4, 9] was 23.4 ± 1.12 µg/mL (≈ 24.3 µM), the solubility ([4]; 37 °C, saline or isotonic) was 23.9 ± 0.982 µg/mL (≈ 24.9 µM) and the solubility ([4]; 37 °C, water) was 23.6 ± 1.23 µg/mL (≈ 24.5 µM).

Work on `COc1ccc(-c2oc3c(CC=C(C)C)c(O)cc(O)c3c(=O)c2O)cc1` [Icaritin, reference compound] yielded an IC50 [1, 5] of 20.6 ± 2.82 µM, an IC50 [1, 6] of 16.1 ± 1.27 µM and a tumor inhibition rate [2] of 53%. The IC50 [3, 7] was 23.2 ± 1.02 µM, the IC50 [3, 8] was 15 ± 0.66 µM and the solubility ([4]; aqueous buffer, PBS, 37° C. overnight, n = 3, read-out: Solubility, PBS) was 8.1 ± 0.897 µg/mL (≈ 22 µM). The solubility ([4]; aqueous with cosolvent or surfactant or cyclodextrin, 0.1% Tween 80, 37° C. overnight, n = 3, read-out: Solubility, 0.1% Tween 80) was 8.11 ± 0.672 µg/mL (≈ 22 µM), the solubility ([4]; saline or isotonic, normal saline, 37° C. overnight, n = 3, read-out: Solubility, Normal Saline) was 8.1 ± 1.01 µg/mL (≈ 22 µM) and the solubility ([4]; water, 37° C. overnight, n = 3, read-out: Solubility, Water) was 8.57 ± 0.832 µg/mL (≈ 23.3 µM).
